Test results taken from patent publication US9796713B2, “Tricyclic compounds as alpha-7 nicotinic acetylcholine receptor ligands” (BRISTOL-MYERS SQUIBB COMPANY, priority 2014, dated 2017).
pEC50: −log10 of the molar value.

These compounds were tested against T1, α-7 nicotinic ACh receptor ion channel (Rattus norvegicus, UniProt Q05941) (assay: FLIPR Ca2+-sensitive fluorescence assay of α7 nicotinic acetylcholine receptor channel function (agonist activity) in HEK 293 cells). Conditions: Table 3; Ca2+ flux, HEK-293 cells expressing the channel.
T1 construct: expressed in transfected cells
T1 sequence (Q05941 23-502): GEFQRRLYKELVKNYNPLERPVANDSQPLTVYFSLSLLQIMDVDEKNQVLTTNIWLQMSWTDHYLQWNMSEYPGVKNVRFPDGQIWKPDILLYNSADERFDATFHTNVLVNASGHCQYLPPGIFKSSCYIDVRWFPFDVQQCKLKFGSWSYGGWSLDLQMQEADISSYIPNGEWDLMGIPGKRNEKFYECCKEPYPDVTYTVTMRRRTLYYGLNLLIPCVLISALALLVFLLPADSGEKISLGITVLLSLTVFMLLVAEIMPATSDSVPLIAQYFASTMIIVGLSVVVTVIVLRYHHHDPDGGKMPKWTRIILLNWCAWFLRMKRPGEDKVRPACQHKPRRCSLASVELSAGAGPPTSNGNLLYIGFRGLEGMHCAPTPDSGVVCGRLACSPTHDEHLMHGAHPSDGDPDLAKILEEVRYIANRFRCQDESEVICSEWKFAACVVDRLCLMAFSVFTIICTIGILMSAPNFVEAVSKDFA
Type: cell-based
Method: I) α7 Nicotinic Acetycholine Receptor Binding. Membranes were prepared for binding using HEK293 cells stably expressing the rat α7 nicotinic acetycholine receptor (rat α7 nAChR). Cells were homogenized at 4° C. in hypotonic lysis buffer consisting of 10 mM Tris (pH 7.4), 5 mM EDTA and protease inhibitors and centrifuged at 32000×g for 20 minutes. The pellet was washed once in membrane wash buffer consisting of 50 mM Tris (pH 7.4), 1 mM EDTA and protease inhibitors and centrifuged at 32000×g for 20 minutes. This pellet was then resuspended in assay buffer consisting 50 mM KH2PO4 (pH 7.4 at 25° C.), 1 mM EDTA, 0.005% Triton-X 100 and 0.1% (v/v) Sigma Protease Inhibitor Cocktail. Aliquots were then frozen in dry ice/ethanol and kept at −80° C. until the day of the assay. II) A Ca^2+-Sensitive, Fluorescence-Based Assay α-7 for Nicotinic Acetylcholine Receptor Channel Function in Mammalian Cells (“FLIPR”). Summary: Lead compounds are evaluated for agonist activity at α-7, α3β4, α4αβ2, and α1β1δ1ε sub-types of nicotinic ACh receptor ion channels expressed in mammalian HEK 293 cells. Agonist potency and efficacy values are determined from kinetic fluorescence Ca^2+ influx measurements made using a 384 well FLIPR (Fluorescence Image Plate Reader). The utility of fluorescent indicators for measuring changes in intracellular divalent cation concentrations, particularly Ca^2+, for drug discovery endeavors is well documented (Rudiger, R., et al., Nature Reviews, 2003, 4:579-586; Gonzalez J. E., et al., Receptors and Channels, 2002, 8:283-295). In this assay, channel expressing HEK cell lines seeded in 384 well assay plates are loaded with a membrane permeant fluorescent Ca^2+ indicator dye, whose 510 nm green emission signal increases in response to elevation of intracellular Ca^2+ concentration. The basal fluorescence from the cells is monitored in real time, followed by the acute addition of test compounds. If the compound is an agonist at any of the non-selective cation channels, the latter open and allow the movement of extracellular Ca^2+ ions into the cell cytoplasm, where they bind to the Ca^2+ indicator dye, and produce an increase in fluorescence output signal, which is detected by a cooled CCD imaging camera.
(§1) Materials and Methods: Reagents: The acetomethoxy (AM) ester of the Ca^2+ indicator dye Fluo-4 was obtained from InVitrogen, (Carlsbad, Calif.). Acetylcholine and all buffer constituents were purchased from Sigma Chemical Company, St. Louis, Mo. G418 and Minimal Essential Medium were purchased from InVitrogen Life Technologies, Carlsbad, Calif. Fetal bovine serum was purchased from (InVitrogen, Carlsbad, Calif.).
(§2) Cell Culture: HEK-293 cells were grown in Minimal Essential Medium containing 10% (v/v) fetal bovine serum at 37° C. in a 5% CO2 incubator. HEK-293 cells stably expressing the ion channels were grown in the same medium with the addition of 500 μg/ml G418.
Ca^2+ flux assays of Ca^2+ channels expressed in HEK-293 cells: HEK-293 cells expressing the ion channels of interest were plated in 384 well, black-walled, clear-bottomed, poly-D-lysine coated plates at a density of ˜20,000 cells/well in 20 μl of Minimal Essential Medium containing 10% (v/v) fetal bovine serum and incubated for 2 days at 29° C. in a 5% CO2 incubator. Prior to assay, cells were loaded with the Fluo-4 AM ester. Cell loading was accomplished by removing the culture medium and replacing it with 30 μl/well of the AM ester of the dye (5 μM) mixed with Hanks Balanced Salt Solution (#14175-095) containing 20 mM HEPES, 2.5 mM probenecid, 0.5 mM CaCl2, 1 mM MgCl2 and 10 μM atropine. Dye loading was allowed to proceed for 90 minutes at room temperature at which time the dye loading solution was removed and replaced with 40 μl/well of Hanks buffer. Cells loaded with dye were loaded onto a FLIPR384 (Molecular Devices, Sunnyvale, Calif.). Fluo-4 dye was excited using the 488 nm line of an argon laser. Emission was filtered using a 540+/−30 nm bandpass filter. […]
With `O=C(c1noc2ccccc12)N1[C@@H]2C[C@H]3CC[N@@](C2)C[C@H]31` [Example 29, benzo[d]isoxazol-3-yl((2R,3aR,6S,7aS)-hexahydro-2,6-methanopyrrolo[2,3-c]pyridin-1(2H)-yl)methanone] the pEC50 was 5.51. For `Cc1ccc2c(C(=O)N3[C@@H]4C[C@H]5CC[N@@](C4)C[C@H]53)n[nH]c2c1` [Example 30, (6-methyl-1H-indazol-3-yl)((2R,3aR,6S,7aS)-hexahydro-2,6-methanopyrrolo[2,3-c]pyridin-1(2H)-yl)methanone], the pEC50 was 6.72. `O=C(c1n[nH]c2ncccc12)N1[C@@H]2C[C@H]3CC[N@@](C2)C[C@H]31` [Example 31, ((2R,3aR,6S,7aS)-hexahydro-2,6-methanopyrrolo[2,3-c]pyridin-1(2H)-yl)(1H-pyrazolo[3,4-b]pyridin-3-yl)methanone] gave a pEC50 of 5.04. For `O=C(c1cc(-c2ccccc2)[nH]n1)N1[C@@H]2C[C@H]3CC[N@@](C2)C[C@H]31` [Example 32, ((2R,3aR,6S,7aS)-hexahydro-2,6-methanopyrrolo[2,3-c]pyridin-1(2H)-yl)(5-phenyl-1H-pyrazol-3-yl)methanone], the pEC50 was < 4.00. `O=C(c1n[nH]c2ccccc12)N1[C@@H]2C[C@H]3CC[N@@](C2)C[C@H]31` [Example 33, ((2R,3aR,6S,7aS)-hexahydro-2,6-methanopyrrolo[2,3-c]pyridin-1(2H)-yl)(1H-indazol-3-yl)methanone] showed a pEC50 of 6.82.

What follows are compounds tested against T2, α7-HI (Rattus norvegicus, UniProt Q05941) (assay: FLIPR Ca2+-sensitive fluorescence assay, α7-HI (agonist activity) in HEK 293 cells). Conditions: not given.
T2 construct: expressed in transfected cells
T2 sequence (Q05941 23-502): as above
Type: cell-based
Method: I) α7 Nicotinic Acetycholine Receptor Binding. Membranes were prepared for binding using HEK293 cells stably expressing the rat α7 nicotinic acetycholine receptor (rat α7 nAChR). Cells were homogenized at 4° C. in hypotonic lysis buffer consisting of 10 mM Tris (pH 7.4), 5 mM EDTA and protease inhibitors and centrifuged at 32000×g for 20 minutes. The pellet was washed once in membrane wash buffer consisting of 50 mM Tris (pH 7.4), 1 mM EDTA and protease inhibitors and centrifuged at 32000×g for 20 minutes. This pellet was then resuspended in assay buffer consisting 50 mM KH2PO4 (pH 7.4 at 25° C.), 1 mM EDTA, 0.005% Triton-X 100 and 0.1% (v/v) Sigma Protease Inhibitor Cocktail. Aliquots were then frozen in dry ice/ethanol and kept at −80° C. until the day of the assay. II) A Ca^2+-Sensitive, Fluorescence-Based Assay α-7 for Nicotinic Acetylcholine Receptor Channel Function in Mammalian Cells (“FLIPR”). Summary: Lead compounds are evaluated for agonist activity at α-7, α3β4, α4αβ2, and α1β1δ1ε sub-types of nicotinic ACh receptor ion channels expressed in mammalian HEK 293 cells. Agonist potency and efficacy values are determined from kinetic fluorescence Ca^2+ influx measurements made using a 384 well FLIPR (Fluorescence Image Plate Reader). […] In this assay, channel expressing HEK cell lines seeded in 384 well assay plates are loaded with a membrane permeant fluorescent Ca^2+ indicator dye, whose 510 nm green emission signal increases in response to elevation of intracellular Ca^2+ concentration. The basal fluorescence from the cells is monitored in real time, followed by the acute addition of test compounds.
as §1, §2
Ca^2+ flux assays of Ca^2+ channels expressed in HEK-293 cells: HEK-293 cells expressing the ion channels of interest were plated in 384 well, black-walled, clear-bottomed, poly-D-lysine coated plates at a density of ˜20,000 cells/well in 20 μl of Minimal Essential Medium containing 10% (v/v) fetal bovine serum and incubated for 2 days at 29° C. in a 5% CO2 incubator. Prior to assay, cells were loaded with the Fluo-4 AM ester. […] Dye loading was allowed to proceed for 90 minutes at room temperature at which time the dye loading solution was removed and replaced with 40 μl/well of Hanks buffer. Cells loaded with dye were loaded onto a FLIPR384 (Molecular Devices, Sunnyvale, Calif.). Fluo-4 dye was excited using the 488 nm line of an argon laser. Emission was filtered using a 540+/−30 nm bandpass filter. For evaluation of the effects of test compounds using the Ca^2+ flux assay, compounds to be tested were provided in assay ready plates. For nicotinic receptor ion channel expressing cells, the assay was initiated by the addition of 20 μl/well of Hanks buffer containing test compounds. For all assays, data were collected at 1 Hz for 10 seconds (baseline), at which time the compound containing stimulus buffers are added, and further measurements collected at 0.33 Hz for 3 min.
Data Analysis: The statistical robustness of the nicotinic receptor Ca^2+ flux assays is determined from blanks and totals wells. […] The raw fluorescence units data files generated on the FLIPR plate reader are automatically exported and processed by in-house data analysis tools.
Compound `O=C(c1n[nH]c2ccccc12)N1[C@@H]2C[C@H]3C[N@](CC[C@H]31)C2` [Example 34b, ((2R,3aS,5S,7aR)-hexahydro-2,5-methanopyrrolo[3,2-c]pyridin-1(6H)-yl)(1H-indazol-3-yl)methanone] has a pEC50 of 6.60.

Same assay, conditions: Table 4; Ca2+ flux, HEK-293 cells expressing the channel; read-out: FLIPR α7-HI (EC50)
`O=C(c1n[nH]c2ccccc12)N1[C@H]2C[C@@H]3C[N@@](CC[C@@H]31)C2` (single isomer, unassigned) [Example 34a] was tested, and the pEC50 was 8.12. Work on `O=C(c1n[nH]c2ccccc12)N1C2CC3CN(CCC31)C2` (stereo not drawn) [Example 34, ((2S*,3aR*,5R*,7aS*)-hexahydro-2,5-methanopyrrolo[3,2-c]pyridin-1(6H)-yl)(1H-indazol-3-yl)methanone] yielded a pEC50 of 7.54. With `O=C(c1cc2cccc(Cl)c2s1)N1C2CC3CN(CCC31)C2` (stereo not drawn) [Example 35, ((2S*,3aR*,5R*,7aS*)-(7-chloro-benzo[b]thiophen-2-yl)(hexahydro-2,5-methanopyrrolo[3,2-c]pyridin-1(6H)-yl)methanone] the pEC50 was 5.25. For `O=C(c1ccc(Cl)cc1)N1C2CC3CN(CCC31)C2` (stereo not drawn) [Example 36, ((2S*,3aR*,5R*,7aS*)-(4-chlorophenyl)(hexahydro-2,5-methanopyrrolo[3,2-c]pyridin-1(6H)-yl)methanone], the pEC50 was < 4.00. For `Cn1nc(C(=O)N2C3CC4CN(CCC42)C3)c2ccccc21` (stereo not drawn) [Example 37, ((2S*,3aR*,5R*,7aS*)-(hexahydro-2,5-methanopyrrolo[3,2-c]pyridin-1(6H)-yl)(1-methyl-1H-indazol-3-yl)methanone], the pEC50 was < 4.00. For `O=C(c1cc(-c2ccccc2)n[nH]1)N1C2CC3CN(CCC31)C2` (stereo not drawn) [Example 38, ((2S*,3aR*,5R*,7aS*)-(hexahydro-2,5-methanopyrrolo[3,2-c]pyridin-1(6H)-yl)(3-phenyl-1H-pyrazol-5-yl)methanone], the pEC50 was < 4.00. In the case of `Cn1cc(C(=O)N2C3CC4CN(CCC42)C3)c2ccccc21` (stereo not drawn) [Example 39, ((2S*,3aR*,5R*,7aS*)-(hexahydro-2,5-methanopyrrolo[3,2-c]pyridin-1(6H)-yl)(1-methyl-1H-indol-3-yl)methanone], the pEC50 was < 4.00. With `O=C(c1n[nH]c2ccc(Cl)cc12)N1C2CC3CN(CCC31)C2` (stereo not drawn) [Example 40, ((2S*,3aR*,5R*,7aS*)-(5-chloro-1H-indazol-3-yl)(hexahydro-2,5-methanopyrrolo[3,2-c]pyridin-1(6H)-yl)methanone] the pEC50 was 7.10. In the case of `COc1ccc2[nH]nc(C(=O)N3C4CC5CN(CCC53)C4)c2c1` (stereo not drawn) [Example 41, ((2S*,3aR*,5R*,7aS*)-(5-methoxy-1H-indazol-3-yl)(hexahydro-2,5-methanopyrrolo[3,2-c]pyridin-1(6H)-yl)methanone], the pEC50 was < 4.00. Compound `O=C(c1n[nH]c2cc(F)ccc12)N1C2CC3CN(CCC31)C2` (stereo not drawn) [Example 42, ((2S*,3aR*,5R*,7aS*)-(6-fluoro-1H-indazol-3-yl)(hexahydro-2,5-methanopyrrolo[3,2-c]pyridin-1(6H)-yl)methanone] has a pEC50 of 7.27. With `COc1ccc2c(C(=O)N3C4CC5CN(CCC53)C4)n[nH]c2c1` (stereo not drawn) [Example 43, ((2S*,3aR*,5R*,7aS*)-(6-methoxy-1H-indazol-3-yl)(hexahydro-2,5-methanopyrrolo[3,2-c]pyridin-1(6H)-yl)methanone] the pEC50 was 7.64. For `O=C(c1n[nH]c2ccc(Br)cc12)N1C2CC3CN(CCC31)C2` (stereo not drawn) [Example 44, ((2S*,3aR*,5R*,7aS*)-(5-bromo-1H-indazol-3-yl)(hexahydro-2,5-methanopyrrolo[3,2-c]pyridin-1(6H)-yl)methanone], the pEC50 was < 4.00. In the case of `O=C(c1n[nH]c2c(Cl)cccc12)N1C2CC3CN(CCC31)C2` (stereo not drawn) [Example 45, ((2S*,3aR*,5R*,7aS*)-(7-chloro-1H-indazol-3-yl)(hexahydro-2,5-methanopyrrolo[3,2-c]pyridin-1(6H)-yl)methanone], the pEC50 was < 4.00.
